Source: US5801191A, “Taxoids” (Biophysica Foundation, priority 1995, dated 1998)
Entries after “also recorded” stand apart in the source; their conditions may differ.

Tests used:
[1] = tested on: Ovcar-3 Ovarian Carcinoma; details: ovcar-3 cells
[2] = tested on: DU-145 Prostate Carcinoma; details: du-145 cells
[3] = tested on: panel of human tumor cell lines; assay: Cytotoxic activity in a panel of human tumor cell lines as compared to paclitaxel
[4] = tested on: MCF-7 Breast Carcinoma; details: mcf-7 cells
[5] = tested on: Molt-4 T-cell Leukemia; details: molt-4 cells
[6] = tested on: Ln-Cap Prostate Carcinoma; details: lncap cells
[7] = tested on: PC-3 Prostate Carcinoma; details: pc-3 cells
[8] = Water solubility / formulation in aqueous vehicles
[9] = background; cited from earlier work
[10] = Physician's Desk Reference (1994) 670, cited from earlier work
[11] = tested on: PC-3 human prostate tumor; assay: In vivo efficacy against established PC-3 human prostate tumor in athymic nude mice
Source text: Example 11. In vivo efficacy of Taxoid BP-193

Compound | IC50 [1] [nM] | IC50 [2] [nM] | cytotoxic activity as compared to paclitaxel [3] | IC50 [4] [nM] | IC50 [5] [nM] | IC50 [6] [nM] | IC50 [7] [nM] | formulation in aqueous vehicles [8] | water solubility as compared with paclitaxel [8] | side effects (hypersensitivity, myelosuppression, neuropathy, alopecia, cardio-toxicity) [9] | plasma concentration following infusion [10] | mean steady state volume of distribution ([10]; following infusion) [LIm^2] | toxicity as compared with paclitaxel ([11]; PC-3 tumor-bearing mice) | tumor regression ([11]; all mice treated with BP-193) | anti-cellular proliferative activity, as measured by the reduction in tumor growth ([11]; established PC-3 tumor, vs vehicle and Taxol control)
CC(=O)O[C@H]1C(=O)[C@]2(C)[C@@H](OC(=O)OCC(O)CO)C[C@H]3OC[C@@]3(OC(C)=O)[C@H]2[C@H](OC(=O)c2ccccc2)[C@]2(O)C[C@H](OC(=O)[C@H](OC(=O)OCC(O)CO)[C@@H](NC(=O)c3ccccc3)c3ccccc3)C(C)=C1C2(C)C (stereo partly shown) [BP-177, 2',7-di(2",3"-dihydroxypropylcarbonoxy)paclitaxel] | 50 | 91.4 | comparable cytotoxic activity to paclitaxel | 335 | 703 | 27.1 | 57.3 | readily formulated in standard aqueous vehicles | more water soluble than paclitaxel |  |  |  |  |  | 
CC(=O)O[C@H]1C(=O)[C@]2(C)[C@@H](OC(=O)NCCN3C(=S)N(c4ccc(C#N)c(C(F)(F)F)c4)C(=O)C3(C)C)C[C@H]3OC[C@@]3(OC(C)=O)[C@H]2[C@H](OC(=O)c2ccccc2)[C@]2(O)C[C@H](OC(=O)[C@H](O)[C@@H](NC(=O)c3ccccc3)c3ccccc3)C(C)=C1C2(C)C [BP-196, 7-[imidazolidinyl-5", 5"-dimethyl-4"-oxo-3"-[(4"'-cyano-3"'-trifluoromethyl)phenyl]-2"-thioxo-1"ethylcarbamoxy]paclitaxel] |  |  | comparable cytotoxic activity to paclitaxel |  |  |  |  | readily formulated in standard aqueous vehicles | more water soluble than paclitaxel |  |  |  |  |  | 
CC(=O)O[C@H]1C(=O)[C@@]2(C)[C@H]([C@H](OC(=O)c3ccccc3)[C@]3(O)C[C@H](OC(=O)[C@H](OC(=O)OCC(O)CO)[C@@H](NC(=O)c4ccccc4)c4ccccc4)C(C)=C1C3(C)C)[C@]1(OC(C)=O)CO[C@@H]1C[C@@H]2O (stereo partly shown) [BP-171, 2'-(2",3"-dihydroxypropylcarbonoxy)paclitaxel] |  |  | cytotoxic activity equal to, or greater than, paclitaxel |  |  |  |  | readily formulated in standard aqueous vehicles | more water soluble than paclitaxel; also recorded: enhanced water solubility as compared with paclitaxel |  |  |  |  |  | 
CC(=O)O[C@H]1C(=O)[C@@]2(C)[C@H]([C@H](OC(=O)c3ccccc3)[C@]3(O)C[C@H](OC(=O)[C@H](O)[C@@H](NC(=O)c4ccccc4)c4ccccc4)C(C)=C1C3(C)C)[C@]1(OC(C)=O)CO[C@@H]1C[C@@H]2O [Taxol, paclitaxel, reference compound] | 2.24 | 2.12 |  | 5 |  | 1.5 |  |  |  | about 30 % of patients | rapidly declines following infusion | 42 to 162 |  |  | 
CC(=O)O[C@H]1C(=O)[C@@]2(C)[C@H]([C@H](OC(=O)c3ccccc3)[C@]3(O)C[C@H](OC(=O)[C@H](OC(=O)NCC(O)CO)[C@@H](NC(=O)c4ccccc4)c4ccccc4)C(C)=C1C3(C)C)[C@]1(OC(C)=O)CO[C@@H]1C[C@@H]2O (stereo partly shown) [BP-174, 2'-(2",3"-dihydroxypropylcarbamoxy) paclitaxel] |  |  | comparable cytotoxic activity to paclitaxel |  |  |  |  | readily formulated in standard aqueous vehicles | more water soluble than paclitaxel; also recorded: enhanced water solubility as compared with paclitaxel |  |  |  |  |  | 
CC(=O)O[C@H]1C(=O)[C@]2(C)[C@@H](OC(=O)OCC(O)CO)C[C@H]3OC[C@@]3(OC(C)=O)[C@H]2[C@H](OC(=O)c2ccccc2)[C@]2(O)C[C@H](OC(=O)[C@H](O)[C@@H](NC(=O)c3ccccc3)c3ccccc3)C(C)=C1C2(C)C (stereo partly shown) [BP-179, 7-(2",3"-dihydroxypropylcarbonoxy)paclitaxel] | 50 | 20.5 |  | 815 | 199 | 20.5 | 3.24 |  |  |  |  |  |  |  | 
CC(=O)O[C@H]1C(=O)[C@@]2(C)[C@H]([C@H](OC(=O)c3ccccc3)[C@]3(O)C[C@H](OC(=O)[C@H](OC(=O)OCCC(O)CO)[C@@H](NC(=O)c4ccccc4)c4ccccc4)C(C)=C1C3(C)C)[C@]1(OC(C)=O)CO[C@@H]1C[C@@H]2O (stereo partly shown) [BP-193, 2'-(3^11,4"-dihydroxybutyl-carbonoxy)paclitaxel] | 55 | 1.4 | cytotoxic activity equal to, or greater than, paclitaxel | 8.65 | 3.97 | 19.5 | 1550 | readily formulated in standard aqueous vehicles | more water soluble than paclitaxel |  |  |  | lacking the toxicity of paclitaxel | all tumors regressed to pretreatment levels | significant anti-cellular proliferative activity
